Literature values, collected in patent US20070250301A1, “Normalizing cell assay data for models” (Cytokinetics, Inc., A Delaware Corporation, priority 2006, published 2007).
Numbered stars: 1 amine (or outer) side, 2 acyl side, 3 side chain; on linkers, the order of the positions; unused ones are H or OH. Bridge positions count the residues as written; N and C are the ends. Square brackets hold non-standard residues; d marks the D form. Peptide text beside a SMILES is read from it. Trp(2-yl) = O=C([C@H](Cc1c([*:3])[nH]c2ccccc12)N[*:1])[*:2]; Leu(4R-OH,5-OH) = C[C@](O)(CO)C[C@H](N)C(=O)O; cisHyp = O=C(O)[C@@H]1C[C@H](O)CN1

How the values were obtained:
bile flow = settings: rats; resulting in cholestatic injury
[1] = tested on: filamentous F actin around canaliculi and tight junctions

| Compound | effect on bile flow (bile flow) | effect on filamentous F actin [1] |
| --- | --- | --- |
| C=C1[C@@H](C)[C@H]2[C@H](Cc3ccccc3)NC(=O)[C@]23OC(=O)/C=C/[C@H](O)CCC[C@@H](C)C/C=C/[C@H]3[C@@H]1O [cytochalasin B] | prompt arrest of bile flow | – |
| C[C@@H]1NC(=O)[C@H](C[C@@](C)(O)CO)NC(=O)[C@@H]2Cc3c([nH]c4ccccc34)SC[C@H](NC(=O)[C@@H]([C@H](C)O)NC1=O)C(=O)N1C[C@@H](O)C[C@H]1C(=O)N[C@@H](C)C(=O)N2 [phalloidin] (cyclo(A[dT]C[cisHyp]A[Trp(2-yl)][Leu(4R-OH,5-OH)]); thioether 3-6) | – | increase in filamentous F actin |
